In paper PMC11796312, “Multifunctional, Fluorene‐Based Modulator of Cholinergic and GABAergic Neurotransmission as a Novel Drug Candidate for Palliative Treatment of Alzheimer's Disease” (Angewandte Chemie (International Ed. in English), 2024):
Entries after “also recorded” stand apart in the source; their conditions may differ. Like-named read-outs stand apart in the source and are kept apart here.

What was measured:
[1] = Cell viability, PrestoBlue (neurotoxicity); assay type: cell-based; conditions: mouse, 24 h, read-out: viability, neurotoxicity X [%]
Method: (§1) Mouse Hippocampal Neuronal (HT-22) were cultured in Dulbecco's modified Eagle's Medium - high glucose (DMEM, Glutamx Thermo Fisher) supplemented with 10% inactivated fetal bovine serum heat (Thermo Fisher), 100 IU/ml penicillin (Sigma Aldrich) and 100 µg/ml streptomycin (Merck). Cells were cultured in flasks (area 75 cm2, Nunc), and incubated at 37°C, 5% CO2. For the measurement of cell viability cells were placed in a 96-well culture plate (2x10^4 cells per well, Falcon). Before the tests, cells were grown for 24 hours in the incubator (37°C, 5% CO2).
(§2) Preparation of stock solutions of tested compounds
(§3) Stock solutions were prepared in the concentration of 10 mM for test and reference compounds. Minimum 1 mg of each tested compound was weighed and dissolved in appropriate volume of dimethyl sulfoxide. Serial dilutions were prepared in DMSO and then the diluted compounds were transferred to PBS. Before assays eventual precipitation or opalescence was checked. All experiments were performed in duplicates, in three independent experiments. Cell viability was measured after 24 hours of incubation with tested cell line.
(§4) Cell viability was evaluated using the Presto Blue reagent (Thermo Fisher), according to the manufacturer procedures. Following 24 hours of incubation with the tested molecule, PrestoBlue reagent was added to a microplate well in an amount equal to one tenth of the remaining medium volume. The resulting mixture was incubated for 15 minutes at 37°C, and the fluorescence intensity (EX 530; EM 580 nm) was measured in the plate reader POLARstar Omega, (BMG Labtech). The results (viability values) are provided as a percentage of live cells with respect to DMSO (control sample).
(§5) Viability values were calculated as a percentage of live cells with respect to the control sample (DMSO). The negative control was medium without cells. IC 50 was determined by […]
(§6) nonlinear regression analysis using GraphPad Prism 9.0 software. All values are expressed as […]
(§7) Table S10. The viability of cells. neurotoxicity immuntoxicity
(§8) The results (viability values) are provided as a percentage of live cells with respect to DMSO (control sample)
(§9) Table S11. The viability of cells.

[2] = test system: Mouse Hippocampal Neuronal (HT-22); assay: Cell viability, PrestoBlue (neurotoxicity); assay type: cell-based; conditions: Mus musculus, HT-22, 24 h
Method: as §1, §2, §3, §4, §5, §6, §7, §8, §9

mice [3] = assay: Four-plate test (FPT); assay type: in vivo; conditions: 0.1, 1 and 10 mg/kg i.p., vs control
Method: (§10) Animals and housing conditions
(§11) In all pharmacodynamic in vivo experiments, except for the Barnes maze (BM) task, adult male Albino Swiss (CD-1) mice weighing between 18 and 22 g and purchased from the Animal Breeding Farm of the Faculty of Pharmacy, Jagiellonian University Medical College were used. In BM task, C57BL/6J mice of the same weight (Animalab, Poland) were used.
Animals were housed in cages (10 mice per cage) at a constant temperature of 22 ± 2 °C, humidity of 55 ± 10%, and a light/dark (12:12) cycle (lights on at 7 AM). Before the experiments, the animals had unlimited access to food and water. […]
Briefly, mice were individually placed in a glass cylinder (25 cm high, 10 cm in diameter) containing 11 cm of water maintained at 23–25 °C and were left therein for 6 min. […] The total duration of immobility was measured during the final 4 min of a 6-min test session. […]
The four-plate apparatus (FPT; Bioseb, France) consists of a cage (25 × 18 × 16 cm) that is floored with four rectangular metal plates (11 × 8 cm). […] The number of punished crossings was counted […]
(§12) of the closed arms. […] The following parameters were measured in this test: time spent in open arms of the EPM device and the number of entries to open arms. […]

mice [4] = assay: Elevated plus maze (EPM); assay type: in vivo; conditions: vs control
Method: as §10, §11
Animals were housed in cages (10 mice per cage) at a constant temperature of 22 ± 2 °C, humidity of 55 ± 10%, and a light/dark (12:12) cycle (lights on at 7 AM). Before the experiments, the animals had unlimited access to food and water. Specified conditions for the maintenance of mice were ensured throughout the experiments, including tree bedding (Transwior, Poland) and cage enrichment (tunnels, nesting material, wooden igloos, etc.). For the behavioral test, the mice were selected randomly; each group consisted of 7-12 mice. The experiments were performed between 9 AM and 3 PM. After in vivo tests, the animals were […]
Ethical approval statement
The procedures for the maintenance and treatment of laboratory animals were approved by the 1st Local Ethics Committee of the Jagiellonian University in Krakow (Approvals No. […]
as §12

SMILES: O[C@H](CNCC1CC1)[C@H](Cc1ccccc1)NC1c2ccccc2-c2ccccc21 [Compound 6]
- viability at 24 h, 0.1 µM ([1]; HT-22, 0.1 µM): 99%
- viability at 24 h, 1 µM ([1]; HT-22, 1 µM): 100%
- viability at 24 h, 10 µM ([1]; HT-22, 10 µM): 99%
- viability at 24 h, 50 µM ([1]; HT-22, 50 µM): 9.5%
- viability at 24 h, 100 µM ([1]; HT-22, 100 µM, vs DMSO): 1.7%
- IC50 ([2]; read-out: NEUROTOXICITY IC50): 23.1 µM
- IC50 ([2]; read-out: NEUROTOXICITY pIC (converted)): 22.9 µM
- number of punished crossings (mice [3]): increased the number of punished crossings; also recorded: statistically significant increase in the number of punished crossings
- time spent in open arms (mice [4]; 0.1 and 1 mg/kg i.p.): prolonged time spent in open arms; also recorded: significant prolongation of time spent in the open arms
- number of open arm entries (mice [4]; 1 and 10 mg/kg i.p.): increased the number of open arm entries; also recorded: increased number of entries into the open arms
